Experimental data reported in patent US20110081428A1, “Use of thioflavin-like compounds to increase life span and/or health span” (priority 2009, published 2011).
Entries after “also recorded” stand apart in the source; their conditions may differ.

Experiments:
[1] = tested on: HE250 [unc-52(e669su250)II]; experiment: Worm paralysis assay, unc-52 ts mutant; type: in vivo, Caenorhabditis elegans
Method: (§1) Scoring for paralysis was initiated 2 and 8 days after temperature upshift for CL4176 and AM140, respectively. […] For sensitivity to EtOH or levamisole resistance, CW152 gas-1 (fc21) X and ZZ26 unc-63(x26)I worms were picked into 0.4 M EtOH or 50 μM levamisole, respectively, equilibrated for 5 min, and scored for paralysis as described above. Treated and untreated worms were compared with an unpaired t-test (implemented in Prism 4, Graphpad™ Software, Inc., San Diego, Calif., USA).

wildtype (N2) C. elegans = experiment: Demographic analysis of age-specific mortality (Gompertz); type: in vivo, Caenorhabditis elegans; conditions: 50 μM ThT, p<0.001
Method: Data are presented as bends/min and represent the average of three independent experiments. *p<0.0001. e) Dose-response Kaplan-Meier survival curves of synchronously ageing hermaphrodite N2 populations exposed to 0 (control) to […], f) HBX and g) HBT at 20° C. (−) Control, (▪) 1 nM, ([…]) 10 μM, (▴) 100 μM, (▾) […]. Graphs are representative of three independent experiments.
Estimates of initial mortality rate and rate of increase with age and model fitting were made using WinModest. Gompertz mortality curves, ln(ux)=ln(a)+bx, where ux defines the age-specific hazard, were fitted with log-likelihood ratios used to examined the effects of constraining the intercept (a) or gradient (b) variables.

wildtype (N2) worms = experiment: Pharyngeal pumping rate; type: in vivo, Caenorhabditis elegans; conditions: 50 μM ThT
Method: FIG. 11A-B. ThT produces small changes in pharyngeal pumping in N2 worms and increases lifespan on a dietary restriction model. a) Pharyngeal pumping rates of wildtype animals raised on 50 μM ThT measured at 3 (left panel) and 6 days of treatment (right panel). Pumping rates of 15 individuals were scored and the averages of three independent experiments are shown (*p<0.01). b) 1 and 10 μM ThT increase lifespan of N2 worms raised on 1×10^9 cfu/ml at 20° C. as compared to untreated worms (left panel). Percent gain in median survival of N2 populations cultured on 0-50 μM ThT (right panel). Bars are representative of 2 to 4 independent experiments per duplicate.

PS3551 [hsf-1(sy441)I] = experiment: Lifespan assay, hsf-1 mutant; type: in vivo, Caenorhabditis elegans; conditions: 50 μM ThT, 100 μM curcumin
Method: Lifespan assays were performed as described previously. (McColl, G. et al. Pharmacogenetic analysis of lithium-induced delayed aging in Caenorhabditis elegans. J Biol Chem 283, 350-357 (2008). Briefly, the nematode growth media (NGM) plates were prepared under sterile conditions. 100 μL of concentrated stocks of each of the compounds used in this study were added onto a previously prepared NGM small plate (3 mL volume) immediately spread over the surface of the plate. The final concentrations quoted in the text assume an even distribution of compound throughout the 3 ml plate. The plates were then placed in a laminar flow hood at room temperature for 30 min and then 60 μL of a concentrated suspension of E. coli OP50 was spotted to form a circular lawn on the center of each plate. Thirty late L4 larvae growing at 20° C. were transferred to fresh NGM plates with FUdR (75 μM) in presence or absence of the specified compounds and incubated at 20° C. The first day of adulthood is Day 3 in survival curves. […] ThT concentration should be optimized depending on batch and purity and stability of the compound.
Animals were scored as alive, dead or lost every other day. […] Animals that died from causes other than ageing, such as sticking to the plate walls, internal hatching of eggs (“bagging”) or gonadal extrusion were censored as were lost worms. […]

[2] = tested on: AM140 (rmIs132[P(unc-54) Q35::YFP]); experiment: Worm paralysis assay, polyQ model; type: in vivo, Caenorhabditis elegans; conditions: AM140, 25° C., 8 days; 50 μM ThT, 100 μM curcumin
Method: as §1

[3] = tested on: N2 worms raised on 1×10^9 cfu/ml; experiment: Lifespan under dietary restriction (diluted bacterial food); conditions: 20° C.
Method: Plates were prepared as described (Chen, D., Thomas, E. L. & Kapahi, P. HIF-1 modulates dietary restriction-mediated lifespan extension via IRE-1 in Caenorhabditis elegans. PLoS Genet. 5, e1000486, (2009), but bacterial concentration was adjusted to 1.0×10^12 cfu/ml and diluted to achieve bacterial concentration of 1.0×10^9 cfu/ml. Diluted bacterial cultures were spotted onto DR agar plates, which were modified from the standard nematode growth media (NGM) plates by excluding peptone and increasing agar from 1.7% to 2.0%. Carbenicillin ([…]) was added to the agar plates to further prevent bacterial growth. Synchronized L4 larvae grown under standard lab conditions (NGM plates with OP50 food, 20° C.) were transferred to fresh DR agar plates in presence or absence of 1, 10, 25, 50 and 100 μM ThT and lifespans scored as described above.

TJ1052 [age-1(hx546)II] = experiment: Lifespan assay, age-1 mutant; type: in vivo, Caenorhabditis elegans; conditions: 50 μM ThT, 25° C.
Method: Lifespan assays were performed as described previously. (McColl, G. et al. Pharmacogenetic analysis of lithium-induced delayed aging in Caenorhabditis elegans. J Biol Chem 283, 350-357 (2008). Briefly, the nematode growth media (NGM) plates were prepared under sterile conditions. 100 μL of concentrated stocks of each of the compounds used in this study were added onto a previously prepared NGM small plate (3 mL volume) immediately spread over the surface of the plate. The final concentrations quoted in the text assume an even distribution of compound throughout the 3 ml plate. The plates were then placed in a laminar flow hood at room temperature for 30 min and then 60 μL of a concentrated suspension of E. coli OP50 was spotted to form a circular lawn on the center of each plate. Thirty late L4 larvae growing at 20° C. were transferred to fresh NGM plates with FUdR (75 μM) in presence or absence of the specified compounds and incubated at 20° C. The first day of adulthood is Day 3 in survival curves. There was between-experiment variation in the magnitude of the lifespan extension observed with ThT which appeared to correlate with different suppliers and batches. ThT concentration should be optimized depending on batch and purity and stability of the compound. […]
Animals were scored as alive, dead or lost every other day. […]

## Cc1ccc2c(c1)sc(-c1ccc(N(C)C)cc1)[n+]2C.[Cl-] [ThT, 4-(3,6-dimethyl-1,3-benzothiazol-3-ium-2-yl)-N,N-dimethylaniline chloride]
[1]; HE250, 50 μM ThT, scored after 36 h at 25° C.
  paralysis phenotype, continuous exposure and addition after 18 h at restrictive temperature: Prevention of paralysis phenotype
[1]; HE250, 25° C., 36 h, 50 μM ThT, 100 μM curcumin, 100 μM rifampicin
  paralysis phenotype of unc-52 mutant: suppressed paralysis; also recorded: Protection
Wildtype (N2) C. elegans
  age-specific mortality: reduced age-specific mortality at all ages
Wildtype (N2) worms; after 3 days of treatment
  decrease in pharyngeal pumping rate: ~15%
Wildtype (N2) worms; after 6 days of treatment
  pharyngeal pumping rate: No difference was detected
PS3551 [hsf-1(sy441)I]
  lifespan of hsf-1(sy441) mutant: does not increase lifespan
[2]
  proportion of paralyzed worms: significantly decrease the proportion of paralyzed worms
[3]; 50 μM ThT
  lifespan in bacterial dilution DR model: detrimental to lifespan
[3]; 1 and 10 μM ThT
  increase in lifespan in bacterial dilution DR model: 24%
TJ1052 [age-1(hx546)II]
  lifespan of age-1(hx546) mutant: extended the lifespan
